Source: publication PMC7504735, “Enhanced Antigiardial Effect of Omeprazole Analog Benzimidazole Compounds” (Molecules, 2020)
Read-outs that look alike come from different tables or passages of the source.

Columns and labels:
[1] = target: T1, triosephosphate isomerase (TPI) (Giardia intestinalis, UniProt P36186); assay: Inactivation of recombinant TPI enzyme with compounds; format: biochemical
T1 construct: His-tag (TEV-cleavable) (cleaved yes); made in house
Experimental: The TPI from G. lamblia was expressed and purified. […] When the culture reached A600 = 0.8, it was induced using 0.4 mM IPTG and incubated overnight at 30 °C with shaking at 180 rpm. After the bacteria were collected by centrifugation (10,000× g, 15 min) and suspended in 40 mL of lysis buffer, pH 8.0 (50 mM Tris, 50 mM NaCl, 5 mM β-mercaptoethanol, and 1 mM phenylmethylsulfonyl fluoride). The bacterial suspension was disrupted by sonication and centrifuged at 9000× g for 1 h at 4 °C. Protein purification was performed by immobilized metal affinity chromatography (IMAC) using a Profinity Ni^2+ charged resin (Bio-Rad) previously reported by Enriquez-Flores et al.. The His-tag sequence was removed from the TIM by incubation with TEVP at a molar ratio of 30:1 (TPI/TEVP) at room temperature for 17 h in digestion buffer, pH 8.0 (50 mM Tris, 0.5 mM ethylene diamine tetraacetic acid (EDTA), and 1 mM dithiothreitol). The enzyme concentration was spectrophotometrically determined at 280 nm, and the enzyme was used immediately.
Enzyme activity of TPI was determined spectrophotometrically as described by monitoring the conversion of glyceraldehyde-3-phosphate (GAP) to dihydroxyacetone phosphate (DHAP). […] The standard reaction mixture contained 1 mM GAP, 0.2 mM NADH, and 0.9 units/mL of α-GDH in TE buffer (100 mM triethanolamine, 10 mM EDTA, pH 7.4). The reaction was initiated by adding 5 ng/mL of TPI to the reaction mixture.
To determine the inactivation of the TPI enzyme from G. lamblia, we performed inactivation assays of the enzyme in the presence of the synthesized compounds. The compounds’ stock solutions were freshly prepared using 100% dimethyl sulfoxide (DMSO) as the solvent at 25 mM. […] After the incubation period, the enzymatic activity was measured by withdrawing an aliquot of each experimental condition, as described above. The results were expressed in terms of the percentage of activity versus the compound’s concentration.

[2] = test system: Giardia lamblia trophozoites; assay: Antigiardial activity on G. lamblia trophozoites, trypan blue dye exclusion; format: cell-based; settings: Giardia duodenalis, 48 h at 37 °C, pH 7.4, trypan blue
Experimental: Giardia lamblia WB strain (ATCC number 30957) was grown in a modified TYI-S-33 medium supplemented with 10% fetal bovine serum. The parasite was cultivated in 15 mL screw-capped borosilicate glass tubes containing 13 mL medium. The tubes were incubated on a 15° horizontal slant at 37 °C. Giardia was harvested from confluent culture by chilling the tubes on ice for 5‒10 min to detach cells, followed by centrifugation at 800× g for 5 min.
The antigiardial activity of the prepared compounds was tested as described. One milligram of a test compound was dissolved in 10 L of DMSO and topped up with 1 mL growth medium. The solution was filter-sterilized using 0.22-m syringe filters and the appropriate volumes of the solutions were taken to prepare the concentration of each compound in 1.5 mL microtubes. For each preparation, concentrations of 500, 250, 125, 62, and 31 µg/mL were prepared in a final volume of 1.5 mL. Each tube was inoculated with 5 × 10^4 trophozoites of G. lamblia and then incubated for 48 h at 37 °C. After incubation, 75 L of the treated trophozoites were subcultured individually for another 48 h in a fresh medium free of compounds. At the end of this period, the viable trophozoites were counted. Each compound was assayed in duplicate in three independent experiments. In each assay, appropriate controls were also tested, including a sample without compound and another with DMSO.
The parasites in each tube were counted using a standard hemocytometer at 10× objective. In each count, trypan blue was employed to distinguish live parasites from dead ones. To permit detachment of Giardia, the tubes were placed on ice for 10 min and the parasites were then centrifuged at 800× g for 10 min. The supernatant was discarded and 1 mL fresh medium was added to each tube. The final suspension was prepared by mixing 25 μL of the parasite suspension in each tube with 100 μL of 0.4% trypan blue in phosphate-buffered saline (PBS). The 50% inhibitory concentration (IC50) was employed as a parameter for biological activity. The IC50 is the concentration of compounds that cuts the number of parasites to half that in the negative control (growth medium + DMSO + parasites). Lastly, the 50% inhibitory concentration (IC50) was calculated.

[3] = target: T1, triosephosphate isomerase (TPI); settings: cited from earlier work
[4] = test system: Giardia lamblia trophozoites; design: method as in PMID 28798383; settings: previously reported; cited from earlier work
[5] = target: T1, triosephosphate isomerase (TPI); design: method as in PMID 28798383; settings: previously reported; cited from earlier work
VERO cells = test system: VERO cells; design: method as in PMID 28798383; settings: cited from earlier work
[6] = target: T1, triosephosphate isomerase (TPI); design: method as in PMID 28798383; settings: BHO2 comparison; cited from earlier work

T1 sequence (P36186 whole entry): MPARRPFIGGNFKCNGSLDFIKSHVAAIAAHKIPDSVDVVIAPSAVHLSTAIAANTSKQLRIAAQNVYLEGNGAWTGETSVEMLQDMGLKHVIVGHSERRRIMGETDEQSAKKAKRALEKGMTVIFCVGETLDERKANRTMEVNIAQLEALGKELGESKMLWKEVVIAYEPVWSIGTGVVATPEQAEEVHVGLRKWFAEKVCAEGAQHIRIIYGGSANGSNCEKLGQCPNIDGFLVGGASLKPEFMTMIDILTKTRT

Compound	IC50 [4] [µM]	IC50 [5] [µM]	Second-order inactivation constant k2 ([3]; previously reported) [M⁻¹ s⁻¹]	other results
[O-][S+](Cc1ccccn1)c1nc2ccccc2[nH]1 (stereo not drawn) [H-BZM1]				IC50 [1]: > 500 µM; Loss (reduction) of TPI enzyme activity ([1]; 500 µM compound, 2 h at 37 °C): 25%; IC50 [2]: 676 µM
COCCCOc1ccnc(C[S+]([O-])c2nc3ccccc3[nH]2)c1C (stereo not drawn) [rabeprazole]				Second-order inactivation constant k2 ([3]; reported by García-Torres et al.): 2.66 M⁻¹ s⁻¹
COc1c(C)cnc(C[S+]([O-])c2nc3ccc(C)cc3[nH]2)c1C (stereo not drawn) [BHO2]	120	64	1.6	CC50 for mammal cells (VERO) (VERO cells): millimolar ranges; Loss of intrinsic fluorescence signal of TPI [6]: 25%
COc1ccc2[nH]c([S+]([O-])Cc3ncc(C)c(OC)c3C)nc2c1 (stereo not drawn) [Omeprazole]	300	225	0.78	
